Data as given in patent publication US5449692A, “Substituted (arylalkylaminobenzyl) aminopropionamide derivatives and process for their preparation” (Farmitalia Carlo Erba S.r.l., priority 1993, dated 1995).
Counter-ions that a name gives are not always drawn.

Key:
[1] = antagonism of maximal electroshock seizures (MES); format: in vivo; conditions: MES test; read-out: MES - ED50 (effective dose in 50% of treated animals)
in vivo = assay: in vivo
Experimental: The neurotoxicity of the compounds and of the reference anticonvulsants was assessed with the rotorod test (Dunan and Miye, J. Am. Pharm. Ass. Sci. Ed., 1957, 46, 208; Kinnard et al. J. Pharmacol. Exp. Ther. 1957, 121, 354; Horowitz, Nature, 1963, 200, 369).
For instance, following Table 1 summarizes the activity and neurotoxicity data obtained in the MES test and in the rotorod test, respectively, for a representative group of compounds according to the present invention, in comparison with the prior art compound 2-(4-benzyl-aminobenzyl)aminopropanamide, dihydrochloride (internal code FCE 26749) which is known from WO-90/14334.
TD50 means toxic dose in 50% of treated animals

Q: Which ED50 [1] does the source give for `CC(NCc1ccc(NCc2ccccc2)cc1)C(N)=O` (stereo not drawn) [FCE 26749, 2-(4-benzyl-aminobenzyl)aminopropanamide, dihydrochloride, reference compound] here?
A: 9.5 mg/kg

Q: What about the TD50 (in vivo) of the same compound?
A: 217 mg/kg

Q: And the selectivity ratio (in vivo)?
A: 23

Q: What does the source list for `C[C@H](NCc1ccc(NCc2cccc(F)c2)cc1)C(N)=O` [FCE 27232, 2-[4-(3-fluorobenzyl)aminobenzyl]aminopropanamide, dihydrochloride]?
A: ED50 [1]: 6.4 mg/kg; TD50 (in vivo): 516 mg/kg; selectivity ratio (in vivo): 81

Q: For `CC(NCc1ccc(NCc2ccc(Cl)cc2)cc1)C(N)=O.Cl.Cl` (stereo not drawn) [FCE 28622, 2-[4-(4-chlorobenzyl)aminobenzyl]aminopropanamide, dihydrochloride], which ED50 [1] is on record?
A: 18.7 mg/kg

Q: And the TD50 (in vivo)?
A: 1640 mg/kg

Q: What about the selectivity ratio (in vivo) of the same compound?
A: 88

Q: Which ED50 [1] does the source give for `CC(NCc1ccc(NCCc2ccccc2)cc1)C(N)=O.Cl.Cl` (stereo not drawn) [FCE 28623, 2-[4-(2-phenylethyl)aminobenzyl]aminopropanamide, dihydrochloride] here?
A: 17.1 mg/kg

Q: What about the TD50 (in vivo) of the same compound?
A: 917 mg/kg

Q: What about the selectivity ratio (in vivo) of the same compound?
A: 54

Q: Which ED50 [1] does the source give for `CC(NCc1ccc(NCc2ccc(Br)cc2)cc1)C(N)=O.Cl.Cl` (stereo not drawn) [FCE 28639, 2-[4-(4-bromobenzyl)aminobenzyl]aminopropanamide, dihydrochloride] here?
A: 29.1 mg/kg

Q: And the TD50 (in vivo)?
A: 1900 mg/kg

Q: And the selectivity ratio (in vivo)?
A: 65

Q: With `CC(NCc1ccc(NCc2ccc(F)cc2)cc1)C(N)=O.Cl.Cl` (stereo not drawn) [FCE 28640, 2-[4-(4-fluorobenzyl)aminobenzyl]aminopropanamide, dihydrochloride] as the compound, how does the ED50 [1] read?
A: 26.5 mg/kg

Q: What about the TD50 (in vivo) of the same compound?
A: 1680 mg/kg

Q: And the selectivity ratio (in vivo)?
A: 63

Q: What does the source list for `CC(NCc1ccc(NCc2cccc(Cl)c2)cc1)C(N)=O.Cl.Cl` (stereo not drawn) [FCE 28714, 2-[4-(3-chlorobenzyl)aminobenzyl]aminopropanamide, dihydrochloride]?
A: ED50 [1]: 11.3 mg/kg; TD50 (in vivo): 663 mg/kg; selectivity ratio (in vivo): 59
